Experiments:
Type in all cases: in vivo
small intestine [1] = assay: Motility of the small intestine in the conscious dog; settings: for Area under the contraction curve, Postdrug 10 min: 10 min postdrug; for Area under the contraction curve, Postdrug 10 min / Area under the contraction curve, Postdrug 20 min / Area under the contraction curve, Postdrug 30 min / Area under the contraction curve, Postdrug 40 min / Area under the contraction curve, Postdrug 50 min / Area under the contraction curve, Postdrug 60 min / Area under the contraction curve, Predrug -20 - 0: phase I and II; for Area under the contraction curve, Postdrug 20 min: 20 min postdrug; for Area under the contraction curve, Postdrug 30 min: 30 min postdrug; for Area under the contraction curve, Postdrug 40 min: 40 min postdrug; for Area under the contraction curve, Postdrug 50 min: 50 min postdrug; for Area under the contraction curve, Postdrug 60 min: 60 min postdrug; for Inhibition Maximal / Inhibition Mean / ED50: phase I+II activity; for Area under the contraction curve, Predrug -20 - 0: predrug baseline -20 - 0 min; for Duration of action: when postdrug values reached 90 % or more of predrug values; for ED50: Canis lupus familiaris, iv, conscious dog, read-out: intravenous IC₅₀-values determined from maximal inhibition
From the text: Male dogs (THG Tierhandelsgesellschaft Rodenbach, Hoe:BEAK (Beagle)) weighing 15 - 20 kg were used in all experiments. At least 4 weeks prior to the experiment the dogs had been equipped with miniaturized strain gage force transducers (T1-T3) (2x4 mm), sutured onto the gut at the locations mentioned below. The cables of the transducers were embedded into a cannula which carried the plug for external electric connection. This stainless steel cannula was implanted into the abdominal wall, close below the costal arch. Each transducer was connected to a measuring bridge. The signals were on line stored using a HP 9835 A computer, allowing later analysis of the data. • T1 : Proximal jejunum • T2 : Distal jejunum • T3 : Ileum
(§1) 18 hours prior to the experiment food was withdrawn from the animals, water ad libidum. All experiments started between 08:00 and 09:00 am.
The following motility parameters were determined: The integral under the […] at 10 min intervals (mNx10min) as an index of phase I + II activity. The duration of drug action (min.) The duration of the interdigestive migrating complex (IMC) (min) as a measure of phase III activity.
Test Compound II was given at doses of 0.2 and 0.5 mg/kg i.v. or 5 mg/kg i.g., dissolved in saline, in a volume of 1 ml/kg (i.v.) or 2 ml/kg (i.g.), n = 3 - 6. Control n = 26.
Buscopan was given at doses of 0.3 and 1 mg/kg i.v., dissolved in saline, in a volume of 1 ml/kg, n = 4 - 6. Pitofenone was given at doses of 1 mg/kg i.v., dissolved in saline, in a volume of 1 ml/kg, n = 8.
ID₅₀-values were determined graphically.

large Bowel = assay: Motility of the large bowel (colonic motor complex) in conscious dogs
From the text: Male dogs (THG Tierhandelsgesellschaft Rodenbach, Hoe:BEAK (Beagle)) weighing 15 - 20 kg were used in all experiments.
At least 4 weeks prior the experiment the dogs had been equipped with miniaturised strain gage force transducers (T1-T2) (2x4mm), sutured onto the gut at the locations mentioned below. The cables of the transducers were embedded into a cannula which carried the plug for external electric connection. This stainless steel cannula was implanted into the abdominal wall, close below the costal arch. Each transducer was connected to a measuring bridge. The signals were on line stored using a HP 9835 A computer, allowing later analysis of the data. • T1 : Colon ascendens 10 cm aborafrom the ileoceval valve (ICV) • T2 : Colon transversum 25 cm aborad from the ICV
as §1
The following parameters were determined: The duration of the cycle (min) The duration of the colonic motor complex (CMC) (min) The maximal height of the concentrations (AU: arbitrary units)
Data from the two recording sites (T1-T2) were pooled. […]
For detection of significant differences (p < 0.05) the unpaired t-test was used. Only significant differences were indicated by *.

small intestine [2] = assay: Gastrointestinal propulsion (charcoal transport) in mice
Procedure: Ref.: J.M.A. Zwagemakers and V. Claassen, Arzneim-Forsch/-Drug Res. 30 (II) Nr.9, p.1517 (1980).
The test compounds I and II were given orally by gavage in a range of 10 to 100 mg/kg doses 30 min before charcoal suspension (0.2 ml/animal, 10% charcoal in 5% gum acacia) in 18 hrs fasted mice (male or female, weight range 18 to 25 g). 30 min after administration of charcoal animals were killed and the extent of charcoal propulsion in the small intestine was measured. The inhibitory activity of test compound on charcoal transport was assessed as percent inhibition compared to length of intestine. For control group 10 ml/kg of saline was given.

small intestine [3] = assay: Antispasmodic activity in anaesthetized dog (carbachol or acetylcholine induced intestinal contractions); settings: anaesthetised dog
Procedure: Male mongrel dogs of weight range 10 to 15 kg were anaesthetised with pentobarbitone sodium (35 mg/ kg,i.v.). Slow i.v. infusion of pentobarbitone (5 mg/kg/hour) was given for maintenance anaesthesia. The endotracheal tube was inserted to facilitate spontaneous breathing. Both femoral artery and vein were cannulated respectively for recording blood pressure and administering drugs. After laparotomy, a small portion of small intestine distal to duodenum was isolated and saline filled balloon inserted and the opening was sutured. A fine polyethylene cannula was then inserted into the mesenteric artery which supplies to the area of intestine containing balloon for injection of carbachol or acetylcholine. A Statham pressure transducer was then attached to balloon cannula for recording both circular and longitudinal muscle contractions. All the parameters were recorded on 4 channel Nihon-Kohden recorder. The intestinal contractions were recorded after administering a standard dose of carbachol or acetylcholine (0.5 to 3 µg). Test compounds I and II were given at different doses 3,10 and 20 mg/kg intra-duodenally and spasmolytic activity was assessed at various time intervals. Anti-spasmodic activity was assessed by calculating percent reduction in agonist induced contractions and also noting onset and duration of activity. The test compounds were dissolved in distilled water (1% soln.). Table 3 Test compounds I and II were given at different doses (10, 30, 100, 300 and 1000 µg/kg) intravenously and spasmolytic activity was assessed at different time intervals. Anti-spasmodic activity was assessed by calculating percent reduction in agonist induced contractions. The ID₅₀ value was calculated from the dose response curve.

With `CCCC[N+]1(C)[C@@H]2C[C@@H](OC(=O)[C@H](CO)c3ccccc3)C[C@H]1[C@@H]1O[C@@H]12` (stereo partly shown) [Buscopan] as the compound, how does the “Area under the contraction curve, Postdrug 10 min” value (small intestine [1]; 0.3 mg/kg i.v.) read?
The value was 1.78 mN x 10 min.

What about the “Area under the contraction curve, Postdrug 20 min” value (small intestine [1]; 0.3 mg/kg i.v.) of the same compound?
Its value is 1.74 mN x 10 min.

And the “Area under the contraction curve, Postdrug 30 min” value (small intestine [1]; 0.3 mg/kg i.v.)?
The value was 2.17 mN x 10 min.

What about the “Area under the contraction curve, Postdrug 40 min” value (small intestine [1]; 0.3 mg/kg i.v.) of the same compound?
The value was 2.15 mN x 10 min.

And the “Area under the contraction curve, Postdrug 50 min” value (small intestine [1]; 0.3 mg/kg i.v.)?
The value was 1.80 mN x 10 min.

And the “Area under the contraction curve, Postdrug 60 min” value (small intestine [1]; 0.3 mg/kg i.v.)?
Its value is 1.60 mN x 10 min.

And the “Inhibition Maximal” value (small intestine [1]; 0.3 mg/kg i.v.)?
The value was 29%.

And the “Inhibition Mean” value (small intestine [1]; 0.3 mg/kg i.v.)?
The value was 23 ± 6%.

What about the “Area under the contraction curve, Predrug -20 - 0” value (small intestine [1]; 0.3 mg/kg i.v.) of the same compound?
The value was 2.09 mN x 10 min.

What about the Duration of action (small intestine [1]; 0.3 mg/kg i.v.) of the same compound?
The Duration of action was 20 min.

And the “Area under the contraction curve, Postdrug 10 min” value (small intestine [1]; 1 mg/kg i.v.)?
Its value is 0.85 mN x 10 min.

What about the “Area under the contraction curve, Postdrug 20 min” value (small intestine [1]; 1 mg/kg i.v.) of the same compound?
The value was 0.86 mN x 10 min.

And the “Area under the contraction curve, Postdrug 30 min” value (small intestine [1]; 1 mg/kg i.v.)?
Its value is 1.23 mN x 10 min.

And the “Area under the contraction curve, Postdrug 40 min” value (small intestine [1]; 1 mg/kg i.v.)?
The value was 2.03 mN x 10 min.

And the “Area under the contraction curve, Postdrug 50 min” value (small intestine [1]; 1 mg/kg i.v.)?
Its value is 2.09 mN x 10 min.

What about the “Area under the contraction curve, Postdrug 60 min” value (small intestine [1]; 1 mg/kg i.v.) of the same compound?
The value was 1.99 mN x 10 min.

And the “Inhibition Maximal” value (small intestine [1]; 1 mg/kg i.v.)?
The value was 58%.

And the “Inhibition Mean” value (small intestine [1]; 1 mg/kg i.v.)?
The value was 52 ± 6%.

And the “Area under the contraction curve, Predrug -20 - 0” value (small intestine [1]; 1 mg/kg i.v.)?
Its value is 2.03 mN x 10 min.

And the Duration of action (small intestine [1]; 1 mg/kg i.v.)?
The Duration of action was 30 min.

And the ED50 (small intestine [1])?
The ED50 was 0.6 mg/kg.

And the “Duration CMC” value (large Bowel; 3 mg/kg intragastrically)?
Its value is 6 ± 4 min.

What about the “Duration Cycle” value (large Bowel; 3 mg/kg intragastrically) of the same compound?
Its value is 35 ± 19 min.

What about the “Max.heigth of CMC” value (large Bowel; 3 mg/kg intragastrically) of the same compound?
Its value is 35±17 AU.

What about the “Duration CMC” value (large Bowel; 10 mg/kg intragastrically) of the same compound?
The value was 5 ± 1 min.

And the “Duration Cycle” value (large Bowel; 10 mg/kg intragastrically)?
Its value is 32 ± 5 min.

And the “Max.heigth of CMC” value (large Bowel; 10 mg/kg intragastrically)?
Its value is 35±10 AU.

And the “effect on colonic motility” value (large Bowel; 3 and 10 mg/kg i.g.)?
The value was “no effect”.

What does the source list for `COC(=O)c1ccccc1C(=O)c1ccc(OCCN2CCCCC2)cc1.Cl` [Test Compound I, Methyl-2-[4-(2-piperidino-ethoxy)-benzoyl]-benzoate hydrochloride]?
Area under the contraction curve, Postdrug 10 min (small intestine [1]; 1 mg/kg i.v.): 1.58 mN x 10 min; Area under the contraction curve, Postdrug 20 min (small intestine [1]; 1 mg/kg i.v.): 2.01 mN x 10 min; Area under the contraction curve, Postdrug 30 min (small intestine [1]; 1 mg/kg i.v.): 2.59 mN x 10 min; Area under the contraction curve, Postdrug 40 min (small intestine [1]; 1 mg/kg i.v.): 2.29 mN x 10 min; Area under the contraction curve, Postdrug 50 min (small intestine [1]; 1 mg/kg i.v.): 3.16 mN x 10 min; Area under the contraction curve, Postdrug 60 min (small intestine [1]; 1 mg/kg i.v.): 3.64 mN x 10 min; Inhibition Maximal (small intestine [1]; 1 mg/kg i.v.): 47%; Inhibition Mean (small intestine [1]; 1 mg/kg i.v.): 29 ± 7%; Area under the contraction curve, Predrug -20 - 0 (small intestine [1]; 1 mg/kg i.v.): 2.96 mN x 10 min; Duration of action (small intestine [1]; 1 mg/kg i.v.): 40 min; ED50 (small intestine [1]): 1 mg/kg; Percent Inhibition (small intestine [2]; 60 mg/kg p.o.): 24.0 ± 3.0%; Percent Inhibition (small intestine [2]; 100 mg/kg p.o.): 30.0 ± 4.3%; Duration (small intestine [3]; 20 mg/kg intra-duodenal): 40 min; On-set (small intestine [3]; 20 mg/kg intra-duodenal): 20 min; Percent Inhibition (small intestine [3]; 20 mg/kg intra-duodenal): 63%; ED50 (small intestine [3]; Canis lupus familiaris, iv, read-out: ID₅₀): 0.14 mg/kg; Duration of action (small intestine [3]; intravenous administration): 10 to 30 min
